From patent US20230048132A1, “CYCLIN-DEPENDENT KINASE INHIBITORS” (SPV THERAPEUTICS INC., priority 2018, published 2023)
“And” between values parts separate entries of the source, which are not always exact repeats. Equal values may be shown once. Read-outs that look alike come from different tables or passages of the source.

Key:
[1] = biological target: T1, CDK9-CYCLINT1 (Homo sapiens, UniProt P50750); assay: CDK inhibition assay (microfluidic LabChip, IC50 format); format: biochemical
T1 construct: purchased Carna

[2] = biological target: T2, CDK2-CYCLINA (Homo sapiens, UniProt P24941); assay: as above; format: biochemical
T2 construct: purchased Millipore

[3] = biological target: T3, CDK2-CYCLINE (Homo sapiens, UniProt P24941); assay: as above; format: biochemical; conditions: Table 3; purified enantiomers; read-out: CDK2-E (E1/E2)
T3 construct: purchased Millipore

[4] = biological target: CDK4-CYCLIND1 (Homo sapiens, UniProt P11802); assay: as above
[5] = biological target: T4, CDK6-CYCLIND3 (Homo sapiens, UniProt Q00534); assay: as above; format: biochemical
T4 construct: purchased Carna

[6] = biological target: CDK7 CyclinH (Homo sapiens, UniProt P50613); assay: as above; format: biochemical; conditions: Table 4a
[7] = test system: all cell lines tested; assay: 2D cell proliferation assay, geometric mean over the cell line panel; format: cell-based; conditions: Table 5 lower part; geometric mean over the 8-line panel; read-out: Geomean abs. IC50 value
Description: (§1) Viability of the cells was analyzed by using the CellTiter-Blue® Cell Viability Assay (Promega), and was performed according to manufacturer's instructions. Briefly, cells were harvested from exponential phase cultures (Chapter 6.6), counted and plated in 96-well flat-bottom microtiter plates at a cell density of 4,000-60,000 cells/well in a volume of 140 μl per well. After a 24 hours recovery period, 10 μL cell culture medium (six control wells/plate) or culture medium with test compound were added (Chapter 6.2). The compounds were applied at five concentrations in full-log increments up to 100 μM in duplicate. Cultures were incubated at 37° C. and 5% CO2 in a humidified atmosphere for another three days. After three days of treatment, 20 μl/well CellTiter-Blue® reagent was added. Following incubation with CellTiter-Blue® reagent for up to four hours, fluorescence (FU) was measured by using the Enspire Multimode Plate Reader (excitation λ=570 nm, emission λ=600 nm). For calculations, the mean values of duplicate/sextuplicate (untreated control) data were used.
(§2) IC values are reported as relative IC50 values and absolute IC50 and IC70 values. […] The absolute IC70 value gives the concentration of the test compound that achieves T/C=30%. The relative IC50 value is the concentration of test compound that gives a response halfway between the top and bottom plateau of the sigmoidal concentration-response curve (inflection point of the curve). Calculation was done by 4parameter non-linear curve fit (Oncotest Data Warehouse Software).
(§3) If an IC50 or IC70 value could not be determined within the examined dose range (because a compound was either too active or lacked activity), the lowest or highest concentration studied was used for calculation of the geometric mean value.
The overall potency of a compound was determined by the geometric mean IC50/IC70 values of all individual IC50/IC70 values. In the heatmap representation of IC50 and IC70 values, the distribution of the IC50 or IC70 values obtained for a test compound in the individual cell lines is given in relation to the geometric mean IC50 or IC70 value, obtained over all PDX models tested. The individual IC values range from 1/32-fold geometric mean IC (corresponding to very potent compound activity or high tumor sensitivity) to 32-fold geometric mean IC (corresponding to lack of compound activity or tumor resistance). The heatmap presentation, therefore, represents an antiproliferative “fingerprint” profile of a test compound.

[8] = test system: MAXFLB MCF7 (ER+); assay: 2D cell proliferation assay (CellTiter-Blue); format: cell-based; conditions: Homo sapiens, 72 h, three days of treatment, read-out: abs. IC50
Description: as §1
(§4) An assay was considered fully evaluable if the following quality control criteria were fulfilled: • control/background ratio>3.0-Z′-factor calculated within the assay plate>0.5 [7]—coefficient of variation in the growth control wells <30%
(§5) Drug effects were expressed in terms of the percentage of the fluorescence signal, obtained by comparison of the mean signal in the treated wells with the mean signal of the untreated controls (expressed by the test-versus-control value, T/C-value [%]):
as §2, §3

[9] = test system: LEXFAL MOLT-4; assay: 2D cell proliferation assay (CellTiter-Blue); format: cell-based; conditions: Homo sapiens, 72 h, three days of treatment, read-out: abs. IC50
Description: as §1, §4, §5, §2, §3

[10] = test system: MEXF WM-266-4; assay: 2D cell proliferation assay (CellTiter-Blue); format: cell-based; conditions: Homo sapiens, 72 h, three days of treatment, read-out: abs. IC50
Description: as §1, §4, §5, §2, §3

[11] = test system: LXFA A549; assay: 2D cell proliferation assay (CellTiter-Blue); format: cell-based; conditions: Homo sapiens, 72 h, three days of treatment, read-out: abs. IC50
Description: as §1, §4, §5, §2, §3

[12] = test system: MAXFTN MDA-MB-231 (ER−); assay: 2D cell proliferation assay (CellTiter-Blue); format: cell-based; conditions: Homo sapiens, 72 h, three days of treatment, read-out: abs. IC50
Description: as §1, §4, §5, §2, §3

[13] = test system: LXFL NCl-H1299; assay: 2D cell proliferation assay (CellTiter-Blue); format: cell-based; conditions: 72 h, three days of treatment, read-out: abs. IC50
Description: as §1, §4, §5, §2, §3

[14] = test system: LEXFAM MV4-11; assay: 2D cell proliferation assay (CellTiter-Blue); format: cell-based; conditions: Homo sapiens, 72 h, three days of treatment, read-out: abs. IC50
Description: as §1, §4, §5, §2, §3

[15] = test system: MAXFTN ZR-75-1 (ER+); assay: 2D cell proliferation assay (CellTiter-Blue); format: cell-based; conditions: Homo sapiens, 72 h, three days of treatment, read-out: abs. IC50
Description: as §1, §4, §5, §2, §3

[16] = Table 3, purified enantiomers, read-out: CDK9-T (E1/E2)
[17] = Table 3, purified enantiomers, read-out: CDK2-A (E1/E2)
[18] = CDK4 (E1/E2), Table 3, purified enantiomers
[19] = Table 3, purified enantiomers, read-out: CDK6 (E1/E2)

T4 sequence (Q00534 whole entry): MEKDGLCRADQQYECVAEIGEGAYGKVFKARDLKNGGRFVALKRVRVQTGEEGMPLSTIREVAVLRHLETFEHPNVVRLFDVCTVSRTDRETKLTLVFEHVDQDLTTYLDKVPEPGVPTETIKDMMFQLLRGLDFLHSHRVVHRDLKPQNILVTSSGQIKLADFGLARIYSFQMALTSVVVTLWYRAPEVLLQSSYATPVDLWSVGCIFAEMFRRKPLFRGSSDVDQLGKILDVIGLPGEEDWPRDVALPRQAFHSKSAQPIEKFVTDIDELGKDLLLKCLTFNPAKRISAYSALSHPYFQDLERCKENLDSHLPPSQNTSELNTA
T4 sequence (P30281 whole entry partner): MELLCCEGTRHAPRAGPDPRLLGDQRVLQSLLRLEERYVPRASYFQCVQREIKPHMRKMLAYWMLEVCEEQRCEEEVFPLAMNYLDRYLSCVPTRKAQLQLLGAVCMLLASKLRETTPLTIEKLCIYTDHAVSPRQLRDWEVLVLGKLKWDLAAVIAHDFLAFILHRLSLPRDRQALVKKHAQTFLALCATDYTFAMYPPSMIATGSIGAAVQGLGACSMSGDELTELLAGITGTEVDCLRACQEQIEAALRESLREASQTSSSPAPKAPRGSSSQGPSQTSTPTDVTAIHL
Sequence of CDK4-CYCLIND1 (P11802 whole entry): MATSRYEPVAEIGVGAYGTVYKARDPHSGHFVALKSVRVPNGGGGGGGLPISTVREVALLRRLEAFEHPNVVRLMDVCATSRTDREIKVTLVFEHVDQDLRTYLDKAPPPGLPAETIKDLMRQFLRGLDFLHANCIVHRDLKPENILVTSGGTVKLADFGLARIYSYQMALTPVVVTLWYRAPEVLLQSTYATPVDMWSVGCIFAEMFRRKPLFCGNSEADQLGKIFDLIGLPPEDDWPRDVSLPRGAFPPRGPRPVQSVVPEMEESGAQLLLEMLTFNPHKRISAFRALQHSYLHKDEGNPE
Sequence of CDK4-CYCLIND1 (P24385 whole entry partner): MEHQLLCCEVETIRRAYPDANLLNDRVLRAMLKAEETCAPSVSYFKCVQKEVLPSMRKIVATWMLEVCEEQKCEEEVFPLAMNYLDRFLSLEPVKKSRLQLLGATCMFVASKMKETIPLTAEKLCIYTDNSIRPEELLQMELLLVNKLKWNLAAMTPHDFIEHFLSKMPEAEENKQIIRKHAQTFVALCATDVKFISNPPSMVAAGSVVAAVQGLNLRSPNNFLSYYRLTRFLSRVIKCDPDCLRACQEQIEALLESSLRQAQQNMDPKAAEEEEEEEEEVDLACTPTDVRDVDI
T1 sequence (P50750 whole entry): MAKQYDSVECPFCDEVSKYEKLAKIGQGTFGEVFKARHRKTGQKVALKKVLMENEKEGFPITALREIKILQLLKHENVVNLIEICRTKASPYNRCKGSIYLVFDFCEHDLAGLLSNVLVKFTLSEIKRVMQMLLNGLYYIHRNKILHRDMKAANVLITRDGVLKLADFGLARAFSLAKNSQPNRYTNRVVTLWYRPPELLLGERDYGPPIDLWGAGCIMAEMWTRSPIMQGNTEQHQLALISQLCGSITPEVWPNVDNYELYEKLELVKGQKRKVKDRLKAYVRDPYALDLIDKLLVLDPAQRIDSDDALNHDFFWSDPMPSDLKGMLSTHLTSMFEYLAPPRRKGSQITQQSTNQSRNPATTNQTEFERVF
T1 sequence (O60563 whole entry partner): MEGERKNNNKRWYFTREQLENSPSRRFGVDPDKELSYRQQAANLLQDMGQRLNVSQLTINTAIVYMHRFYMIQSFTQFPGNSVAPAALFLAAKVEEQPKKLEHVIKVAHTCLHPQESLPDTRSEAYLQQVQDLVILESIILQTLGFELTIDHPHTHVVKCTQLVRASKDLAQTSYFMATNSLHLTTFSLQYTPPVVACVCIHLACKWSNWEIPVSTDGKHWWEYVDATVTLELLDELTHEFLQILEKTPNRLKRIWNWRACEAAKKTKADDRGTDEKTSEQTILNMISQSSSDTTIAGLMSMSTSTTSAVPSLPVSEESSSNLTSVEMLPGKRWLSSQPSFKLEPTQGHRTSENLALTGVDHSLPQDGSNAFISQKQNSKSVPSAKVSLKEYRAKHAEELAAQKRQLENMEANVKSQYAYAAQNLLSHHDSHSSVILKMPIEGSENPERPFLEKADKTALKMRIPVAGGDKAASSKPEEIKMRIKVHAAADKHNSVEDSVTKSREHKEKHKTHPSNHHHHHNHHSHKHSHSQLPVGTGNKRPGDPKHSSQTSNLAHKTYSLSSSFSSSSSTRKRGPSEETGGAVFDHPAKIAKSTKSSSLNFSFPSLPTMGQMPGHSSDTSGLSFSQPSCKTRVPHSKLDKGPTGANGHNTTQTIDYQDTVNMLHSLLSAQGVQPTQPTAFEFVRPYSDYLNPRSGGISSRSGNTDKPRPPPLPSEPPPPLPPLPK
Sequence of CDK7 CyclinH (P50613 whole entry): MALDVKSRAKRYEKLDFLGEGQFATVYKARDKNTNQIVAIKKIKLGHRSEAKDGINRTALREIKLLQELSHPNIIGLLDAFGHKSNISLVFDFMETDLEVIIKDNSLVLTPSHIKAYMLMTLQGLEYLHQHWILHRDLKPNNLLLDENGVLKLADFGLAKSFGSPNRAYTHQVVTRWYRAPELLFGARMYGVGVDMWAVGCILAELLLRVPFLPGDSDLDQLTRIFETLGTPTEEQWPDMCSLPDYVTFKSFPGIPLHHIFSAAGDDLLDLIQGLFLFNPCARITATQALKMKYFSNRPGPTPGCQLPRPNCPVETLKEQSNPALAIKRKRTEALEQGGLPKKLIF
Sequence of CDK7 CyclinH (P51946 whole entry partner): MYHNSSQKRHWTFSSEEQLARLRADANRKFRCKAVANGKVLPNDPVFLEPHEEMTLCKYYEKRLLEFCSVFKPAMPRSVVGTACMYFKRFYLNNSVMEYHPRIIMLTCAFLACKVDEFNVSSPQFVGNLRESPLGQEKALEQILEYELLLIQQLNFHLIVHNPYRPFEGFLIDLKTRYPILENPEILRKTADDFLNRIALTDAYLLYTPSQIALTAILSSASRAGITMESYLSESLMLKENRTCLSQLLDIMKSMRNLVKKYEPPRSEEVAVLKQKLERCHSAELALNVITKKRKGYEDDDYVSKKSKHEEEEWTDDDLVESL
Sequence of CDK7 CyclinH (P51948 whole entry partner): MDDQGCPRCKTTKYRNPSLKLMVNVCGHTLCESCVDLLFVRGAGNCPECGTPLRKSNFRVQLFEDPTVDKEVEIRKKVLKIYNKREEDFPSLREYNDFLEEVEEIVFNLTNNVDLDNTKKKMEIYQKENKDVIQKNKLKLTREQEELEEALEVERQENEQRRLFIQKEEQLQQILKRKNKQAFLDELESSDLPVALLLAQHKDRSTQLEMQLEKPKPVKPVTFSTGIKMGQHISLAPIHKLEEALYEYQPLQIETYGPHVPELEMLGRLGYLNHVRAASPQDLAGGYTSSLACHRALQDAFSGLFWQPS

`O=C1NCC[C@]12Cc1cnc(Nc3ccc(N4CCNCC4)cc3)nc1N(C1CCCC1)C2=O` [Example D55, (R)-8-cyclopentyl-2-((4-(piperazin-1-yl)phenyl)amino)-5,8-dihydro-7H-spiro[pyrido[2,3-d]pyrimidine-6,3′-pyrrolidine]-2′,7-dione] gave an IC50 [1, 16] of 1800 nM, an IC50 [2, 17] of 6000 nM and an IC50 [3] of 8880 nM. It also gave an IC50 [4, 18] of 251 nM and an IC50 [5, 19] of 519 nM.

In the case of `O=C1NCC[C@@]12Cc1cnc(Nc3ccc(N4CCNCC4)cc3)nc1N(C1CCCC1)C2=O` [Example D56, (S)-8-cyclopentyl-2-((4-(piperazin-1-yl)phenyl)amino)-5,8-dihydro-7H-spiro[pyrido[2,3-d]pyrimidine-6,3′-pyrrolidine]-2′,7-dione], the IC50 [1, 16] is reported as 11.1 nM, the IC50 [2, 17] is reported as 48.2 nM and the IC50 [3] is reported as 104 nM. It also gave an IC50 [4, 18] of 1.4 nM and an IC50 [5, 19] of 2.67 nM.

Work on `O=C1NCC[C@]12Cc1cnc(Nc3ccc(N4CCNCC4)cn3)nc1N(C1CCCC1)C2=O` [Example D57, (R)-8-cyclopentyl-2-((5-(piperazin-1-yl)pyridin-2-yl)amino)-5,8-dihydro-7H-spiro[pyrido[2,3-d]pyrimidine-6,3′-pyrrolidine]-2′,7-dione] yielded an IC50 [1, 16] of over 100000 nM, an IC50 [2, 17] of over 100000 nM and an IC50 [3] of over 100000 nM. It also gave an IC50 [4, 18] of 1050 nM and an IC50 [5, 19] of 2010 nM.

`O=C1NCC[C@@]12Cc1cnc(Nc3ccc(N4CCNCC4)cn3)nc1N(C1CCCC1)C2=O` [Example D58, (S)-8-cyclopentyl-2-((5-(piperazin-1-yl)pyridin-2-yl)amino)-5,8-dihydro-7H-spiro[pyrido[2,3-d]pyrimidine-6,3′-pyrrolidine]-2′,7-dione] was tested, and the IC50 [1, 16] was 198 nM, the IC50 [2, 17] was 3120 nM and the IC50 [3] was 4240 nM. The IC50 [4, 18] was 2.96 nM and the IC50 [5, 19] was 3.26 nM.

`CN(C)[C@@H]1CCN(c2ccc(Nc3ncc4c(n3)N(C3CCCC3)C(=O)[C@]3(CCNC3=O)C4)cc2F)C1` [Example D176, (S)-8-cyclopentyl-2-((4-((R)-3-(dimethylamino)pyrrolidin-1-yl)-3-fluorophenyl)amino)-5,8-dihydro-7H-spiro[pyrido[2,3-d]pyrimidine-6,3′-pyrrolidine]-2′,7-dione] showed an IC50 ([1]; Table 4a, read-out: CDK9 CyclinT1 IC50) of 2.73 nM, an IC50 ([2]; Table 4a, read-out: CDK2 CyclinA IC50) of 33.3 nM and an IC50 [6] of 126 nM. For the same compound, the IC50 [7] was 179 nM, the IC50 [8] was 62 nM and the IC50 [9] was 97 nM. The IC50 [10] was 548 nM, the IC50 [11] was 440 nM and the IC50 [12] was 172 nM. It also gave an IC50 [13] of 229 nM, an IC50 [14] of 28 nM and an IC50 [15] of 648 nM. For the same compound, the IC50 ([4]; CDK4 CyclinD1 IC50, Table 4a, a second value in parentheses for some compounds) was 1.12 nM and 0.64 nM and the IC50 ([5]; Table 4a, read-out: CDK6 CyclinD3 IC50) was 2.07 nM.
